Source: patent publication US6423829B1 (St. Jude Children's Research Hosital, priority 1997, dated 2002)
Counter-ions that a name gives are not always drawn.

Key:
[1] = biological target: T1, hENT2 (ei transporter) in CEM/N1-7 cells (Homo sapiens, UniProt Q14542); assay: 3H-uridine uptake in CEM/N1-7 cells in the presence of nucleoside transport inhibitors; format: cell-based; details: for effect on uridine transport in CEM/N1-7 cells: FIG. 1B
T1 construct: expressed in transfected cells; host or cells: CEM/C19 (nucleoside-transport-deficient, EBNA-1-expressing subline of human T-cell leukemia CEM) carrying plasmid pDR2/N1-7
T1 sequence (Q14542 1-456): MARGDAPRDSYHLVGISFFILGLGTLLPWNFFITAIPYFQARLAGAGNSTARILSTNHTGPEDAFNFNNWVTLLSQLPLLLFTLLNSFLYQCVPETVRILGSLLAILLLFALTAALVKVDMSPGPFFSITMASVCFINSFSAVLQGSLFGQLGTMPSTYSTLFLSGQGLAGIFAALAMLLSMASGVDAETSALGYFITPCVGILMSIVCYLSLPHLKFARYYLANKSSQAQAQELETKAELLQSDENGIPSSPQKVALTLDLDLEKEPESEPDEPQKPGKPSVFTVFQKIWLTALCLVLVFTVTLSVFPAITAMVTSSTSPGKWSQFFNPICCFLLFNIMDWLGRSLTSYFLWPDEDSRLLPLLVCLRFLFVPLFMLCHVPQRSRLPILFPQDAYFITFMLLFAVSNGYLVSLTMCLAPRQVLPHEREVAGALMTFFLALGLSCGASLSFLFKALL
Protocol: The values shown are means of duplicate assays and have been corrected for extracellular water space.
FIGS. 1B-1C depict the uptake of 10 μM ^3H-uridine determined at 22° C. in Na^+buffer using a 7.5 second uptake interval in the presence of nucleoside transport inhibitors. The uptake interval was initiated by simultaneous addition of the label and inhibitory nucleobase, nucleoside or nucleotide. […] This value was subtracted from the total uridine uptake values.
Removal of sodium from the buffer had no effect on transport in CEM/N1-7 indicating the presence of an equilibrative type transporter. […] (FIG. 1B). As expected from the permeant selectivity observed for ei activity in several cell lines [Plagemann et al., Biochim. Biophys. […] This was recently confirmed by Jarvis and colleagues [Osses et al., Biochem. J., 317:843-848 (1996)] by direct measurements of hypoxanthine in human vascular endothelial cells. […] All these features are consistent with those of an ei transporter, ie., an iENTP.

[2] = test system: concentrative nucleoside transporters (cif, cit, cib); details: at concentrations up to 10 μM; cited from earlier work
CEM/C19 cells = assay: DUP-785 toxicity and uridine rescue in CEM/C19 cells; format: cell-based, human
[3] = biological target: T2, human ei transporter in HeLa cells (Homo sapiens, UniProt Q14542); details: read-out: IC50 for inhibition of uridine transport via ei; cited from earlier work
T2 construct: the human ei transporter in HeLa cells where the IC50 values; host or cells: HeLa cells (endogenous)
T2 sequence (Q14542 1-456): T1 sequence (Q14542 1-456)

**Q.** Which “effect on uridine transport in CEM/N1-7 cells” value (“effect on uridine transport” below) ([1]; 10 μM inhibitor) does the source give for OCCN(CCO)c1nc(N2CCCCC2)c2nc(N(CCO)CCO)nc(N3CCCCC3)c2n1 [DIP, bis(diethanolamino)-4,8-dipiperidinopyrimido-[5,4-d]-2,6-pyrimidine] here?
**A.** completely blocked

**Q.** What about the “sensitivity of the concentrative nucleoside transporters” value [2] of the same compound?
**A.** insensitive

**Q.** For Cc1c(-c2ccc(-c3ccccc3F)cc2)nc2ccc(F)cc2c1C(=O)O [DUP-785, 6-fluoro-2(2′--fluoro-1, 1′-biphenyl-4-yl)-3-methyl-4-quinoline carboxylic acid sodium salt], which “sensitivity of cells to the de novo uridylate synthesis inhibitor” value (CEM/C19 cells) is on record?
**A.** sensitive

**Q.** Which “effect on uridine transport” value ([1]; 0.1 μM inhibitor, 10 μM 3H-uridine, 22° C.) does the source give for O=[N+]([O-])c1ccc(CSc2ncnc3c2ncn3C2OC(CO)C(O)C2O)cc1 [NBMPR, 6-[(4-nitrobenzyl)thio-9-β-D-ribofuranosylpurine]] here?
**A.** had no effect

**Q.** What about the “effect on uridine transport” value ([1]; higher concentrations of inhibitor) of the same compound?
**A.** Partial inhibition

**Q.** And the “sensitivity of the concentrative nucleoside transporters” value [2]?
**A.** insensitive

**Q.** What about the IC50 [3] of the same compound?
**A.** 6 µM

**Q.** With O=c1[nH]cnc2nc[nH]c12 [hypoxanthine] as the compound, how does the “effect on uridine influx in CEM/N1-7 cells” value ([1]; competing nucleobase, nucleoside or nucleotide added with label, FIG. 1C) read?
**A.** inhibited
